Experimental data reported in patent US20020015729A1, “COLONIC DELIVERY OF WEAK ACID DRUGS” (priority 1996, published 2002).

Experiments:
[1] = Solubility of the drug in the colonic pH range; type: physicochemical; conditions: pH 4.5 to 8.0
[2] = Dissolution of ridogrel and sodium ridogrel from hard gelatin capsules, USP apparatus 2, 100 rpm, 900 mL phosphate buffer; type: physicochemical; conditions: 10 mg in size 2 hard gelatin capsule, pH 5, 6 and 7
Method: Into each of three size 2 hard gelatin capsules was weighed 10 mg of ridogrel. Into another three capsules was weighed 10 mg of the sodium ridogrel lyophilisate. The dissolution of ridogrel and sodium ridogrel into 900 mL of phosphate buffer at pH 5, 6 and 7 was tested (USP apparatus 2, 100 rpm).

| solubility in the colonic pH range [1] | dissolution rate as a function of pH [2] | dissolution rate as a function of pH ([2]; listed as sodium salt of ridogrel) | SMILES |
| --- | --- | --- | --- |
| low |  |  | O=C(O)CCCCO/N=C(/c1cccnc1)c1cccc(C(F)(F)F)c1 [ridogrel, (E)-5-[[[3-pyridinyl[3-(trifluoromethyl)phenyl]methylene]amino]oxy]pentanoic acid] |
|  | largely independent of pH | greatly improved dissolution rate | O=C([O-])CCCCON=C(c1cccnc1)c1cccc(C(F)(F)F)c1.[Na+] [sodium ridogrel] |
